The test system of series [1] is Monographella nivalis (Fusarium nivale, Microdochium nivale). In words: Example B-14: action against Monographella nivalis, fungal growth assay. Type of series: cell-based. As to conditions: 72 hrs. On the procedure: Example B-14: Action Against Monographella nivalis (Anamorph: Fusarium nivale, Microdochium nivale; Snow Mould)—Fungal Growth Assay After placing a DMSO-solution (2% Dimethylsulfoxid, 0.025% Tween 20) of the test compounds into a microtiter plate (96-well format) the nutrient broth containing the fungal spores was added. 40.000 conidia/ml of the fungus from cryogenic storage were directly mixed into nutrient broth (PDB potato dextrose broth). The compounds were tested at a variety of application rates; these rates are shown in parts per million (ppm) in the table. The test plates were incubated at 24° C. and the inhibition of growth was measured photometrically after 72 hrs (0=no growth inhibition, ratings of 80% to 99% mean good to very good inhibition, 100%=complete inhibition).

Series [2] relates to Pyrenophora teres. In words: Example B-15: action against Pyrenophora teres (net blotch) on barley leaf segments. Type of series: in vivo. To be noted: 4 days after inoculation. How it is done: Example B-15: Action Against Pyrenophora teres (Net Blotch) on Barley Barley leaf segments are placed on agar in multiwell plates (24-well format) and sprayed with test solutions (200 ppm, […], and 20 ppm of active ingredient). After drying, the leaf disks are inoculated with a spore suspension of the fungus. After appropriate incubation the activity of a compound is assessed 4 days after inoculation as preventive fungicidal activity (in %).

In series [3] the test system is Botrytis cinerea. In words: Example B-11: action against Botrytis cinerea, fungal growth assay. Type of series: cell-based. As to conditions: 48-72 hrs. On the procedure: (§1) Example B-11: Action Against Botrytis cinerea—Fungal Growth Assay Conidia of the fungus from cryogenic storage were directly mixed into nutrient broth (PDB potato dextrose broth). After placing a (DMSO) solution of the test compounds into a microtiter plate (96-well format) the nutrient broth containing the fungal spores was added. The test plates were incubated at 24° C. and the inhibition of growth was determined photometrically after 48-72 hrs. The activity of a compound is expressed as fungal growth inhibition (0=no growth inhibition, ratings of 80% to 99% mean good to very good inhibition, 100%=complete inhibition).

Series [4] concerns Septoria tritici. As to the kind of experiment: Example B-13: action against Septoria tritici, fungal growth assay. Type of series: cell-based. As to conditions: for fungal growth inhibition: 72 hrs. On the procedure:
as §1, with “B-13:” for “B-11:”, “Septoria tritici—Fungal” for “Botrytis cinerea—Fungal”, “72” for “48-72”

Series [5] relates to Mycosphaerella arachidis (Cercospora arachidicola). As to the kind of experiment: Example B-12: action against Mycosphaerella arachidis, fungal growth assay. Type of series: cell-based. As to conditions: 6-7 days. How it is done:
as §1, with “B-12:” for “B-11:”, “Mycosphaerella arachidis (Early Leaf Spot of Groundnut; Cercospora arachidicola (Anamorph))—Fungal” for “Botrytis cinerea—Fungal”, “measured” for “determined”, “6-7 days.” for “48-72 hrs.”

This note sets out measurements from US20110207771A1, “N-(L-ALKYL-2-PHENYLETHYL)-CARBOXAMIDE DERIVATIVES AND USE THEREOF AS FUNGICIDES” (SYNGENTA CROP PROTECTION, INC., priority 2006, published 2011).

As a reminder, the melting point is the temperature, or range, at which the solid turns liquid. As usually defined, the inhibition of growth is the relative decrease from the control value, in per cent. The inhibition is the share of the control response that was lost under treatment. Lower therefore signals a response near the control.

For the molecule `CC(Cc1ccc(-c2ccc(Cl)cc2)cc1Cl)NC(=O)c1cn(C)nc1C(F)F` (stereo not shown) [Compound 1.462, 3-difluoromethyl-1-methyl-1H-pyrazole-4-carboxylic acid [2-(3,4′-dichlorobiphenyl-4-yl)-1-methyl-ethyl]-amide], the melting point was 96 to 98 °C.
Take `CC(Cc1ccc(Cl)cc1Cl)NC(=O)c1cn(C)nc1C(F)F` (single isomer, unassigned; (+)) [(+)-3-difluoromethyl-1-methyl-1H-pyrazole-4-carboxylic acid ] [(+)-3-difluoromethyl-1-methyl-1H-pyrazole-4-carboxylic acid [2-(2,4-dichlorophenyl)-1-methyl-ethyl]-amide]: the inhibition of growth in series [1] (2 ppm), in series [1] (6 ppm) and in series [1] (20 ppm) was 100% each time. For the same molecule, the preventive fungicidal activity in series [2] (20 ppm), in series [2] (60 ppm) and in series [2] (200 ppm) was 100% in each case. Besides, the values for the fungal growth inhibition in series [3] (2 ppm), in series [3] (6 ppm) and in series [3] (20 ppm) were 80%, 100% and 100%, respectively.
As to `CC(Cc1ccc(Br)cc1Cl)NC(=O)c1cn(C)nc1C(F)F` (stereo not shown) [Compound 1.451, 3-difluoromethyl-1-methyl-1H-pyrazole-4-carboxylic acid [2-(4-bromo-2-chlorophenyl)-1-methyl-ethyl]-amide], the melting point fell in the range of 183 to 184 °C.
Molecule `CC(Cc1ccc(Cl)cc1Cl)NC(=O)c1cn(C)nc1C(F)F` (single isomer, unassigned; (+)) [(+)-3-difluoromethyl-1-methyl-1H-pyrazole-4-carboxylic acid [2-(2,4-dichlorophenyl)-1-methyl-ethyl]-amide] showed an inhibition at 6 ppm in series [4] (Zymoseptoria tritici, 72 h, 6 ppm) of 100%. The inhibition at 20 ppm in series [4] (Zymoseptoria tritici, 72 h, 20 ppm) is 100%; in series [5] (Mycosphaerella arachidis, 20 ppm), 100%.
Regarding `CC(Cc1ccc(Cl)cc1Cl)NC(=O)c1cn(C)nc1C(F)F` (single isomer, unassigned; (-)) [(−)-3-difluoromethyl-1-methyl-1H-pyrazole-4-carboxylic acid ] [(−)-3-difluoromethyl-1-methyl-1H-pyrazole-4-carboxylic acid [2-(2,4-dichlorophenyl)-1-methyl-ethyl]-amide], the fungal growth inhibition in series [4] (2 ppm) was found to be 0%; in series [4] (6 ppm), 80%; in series [4] (20 ppm), 100%; in series [5] (2 ppm) it was 0%; in series [5] (6 ppm), 50%; in series [5] (20 ppm), 80%. Besides, the fungal growth inhibition in series [3] (2 ppm) came out at 0%; in series [3] (6 ppm), 20%; in series [3] (20 ppm), 20%. Besides, the inhibition of growth in series [1] (2 ppm) amounted to 0%; in series [1] (6 ppm), 0%; in series [1] (20 ppm), 20%. Further, the preventive fungicidal activity is reported as 80% in series [2] (20 ppm), 100% in series [2] (60 ppm) and 100% in series [2] (200 ppm).
Take `CC(Cc1ccc(Cl)cc1Cl)NC(=O)c1cn(C)nc1C(F)F` (stereo not shown) [Compound 1.197, 3-difluoromethyl-1-methyl-1H-pyrazole-4-carboxylic acid [2-(2,4-dichlorophenyl)-1-methyl-ethyl]-amide]: the melting point is 157 °C.
Same read-out and setting: in the case of `Cn1cc(C(=O)NC2(Cc3ccc(Cl)cc3Cl)CC2)c(C(F)F)n1` [Compound 1.231, 3-difluoromethyl-1-methyl-1H-pyrazole-4-carboxylic acid [1-(2,4-dichlorobenzyl)-cyclopropyl]-amide] it was 165 to 168 °C.
